Test results from ChEMBL document CHEMBL5154826, “Discovery of the Clinical Candidate MAK683: An EED-Directed, Allosteric, and Selective PRC2 Inhibitor for the Treatment of Advanced Malignancies” (J Med Chem, 2022).
In brackets after ≈: the same amount, converted by molar mass.

Legend:
[1] = Inhibition of PRC2 (unknown origin) assessed as reduction in H3K27 trimethylation using H3K27Me0 peptide (21 to 44 residues) as substrate by measuring SAH formation by LC-MS analysis; parameters: species or system Homo sapiens
[2] = Permeability across apical to basolateral side in human Caco-2 cells at 10 uM incubated for 2 hrs by LC/MS/MS analysis; format: ADME, cell-based; conditions: caco-2, 2 h, 10 µM
[3] = biological target: 3',5'-cyclic-AMP phosphodiesterase 4D (Homo sapiens, UniProt Q08499); experiment: Inhibition of human Phosphodiesterase 4D
[4] = High throughput solubility of the compound at pH 1 after 16 to 24 hrs by MS/MS analysis; format: physicochemical; conditions: buffer, time 16-24 hrs
[5] = High throughput solubility of the compound in SGF after 16 to 24 hrs by MS/MS analysis; format: physicochemical; conditions: time 16-24 hrs
[6] = Toxicity in Athymic BALB/c nude mouse xenografted with human Karpas-422 cells assessed as tolerability by measuring body weight at 10 to 300 mg/kg, po twice a day for 30 days; format: organism-based; conditions: in vivo, 720 h, dose 10-300 mg/kg, time 30 day
[7] = Antitumor activity against human Karpas-422 cells xenografted Athymic BALB/c nude mouse assessed as inhibition of tumor growth at 300 mg/kg, po for 23 days; format: functional; parameters: scale not given: the % may be the effect or the level left; conditions: time 23 day
[8] = Antitumor activity against human Karpas-422 cells xenografted Athymic BALB/c nude mouse assessed as minimum effective dose administered twice a day for 30 days; format: functional; conditions: KARPAS-422, 720 h, time 30 day, read-out: MED
[9] = In vivo inhibition of PRC2 in PBMC collected from human Karpas-422 cells xenografted Athymic NTac:NIH-Whn nude rat assessed as reduction in H3K27me3 level at 30 mg/kg, po, qd for 42 days measured after 4 hrs of last dose by FACS method; format: functional; parameters: scale not given: the % may be the effect or the level left; conditions: time 42 day
[10] = In vivo inhibition of PRC2 in PBMC collected from human Karpas-422 cells xenografted Athymic NTac:NIH-Whn nude rat assessed as reduction in H3K27me3 level at 0.3 mg/kg, po, qd for 52 days measured after 4 hrs of last dose by FACS method; format: functional; parameters: scale not given: the % may be the effect or the level left; conditions: time 52 day
[11] = Ratio of drug level in rat blood to plasma; format: ADME, cell-free
[12] = Toxicity in Athymic NTac:NIH-Whn nude rat xenografted with human Karpas-422 cells assessed as reduction in body weight at 60 mg/kg, po, qd measured upto 140 days; format: organism-based; conditions: in vivo, 3360 h, time < 140 day
[13] = Oral biovailability in ICR (CD-1) mouse at 2 mg/kg, po; format: ADME, organism-based; conditions: in vivo
[14] = Oral biovailability in Beagle dog at 2 mg/kg, po; format: ADME, organism-based, Canis lupus familiaris; conditions: in vivo
[15] = Volume of distribution at steady state in Sprague-Dawley rat at 2 mg/kg, po or 1 mg/kg, iv after 1 week by LC-MS/MS analysis; format: ADME, organism-based; conditions: in vivo, 168 h, time 1 weeks
[16] = Terminal half life in ICR (CD-1) mouse at 2 mg/kg, po or 1 mg/kg, iv after 1 week by LC-MS/MS analysis; format: ADME, organism-based; conditions: in vivo, time 1 weeks, read-out: beta t1/2 (converted)
[17] = Terminal half life in wild type Beagle dog at 2 mg/kg, po or 1 mg/kg, iv after 1 week by LC-MS/MS analysis; format: ADME, organism-based, Canis lupus familiaris; conditions: in vivo, time 1 weeks, read-out: beta t1/2 (converted)
[18] = Dose normalized AUC in ICR (CD-1) mouse at 2 mg/kg, po or 1 mg/kg, iv after 1 week by LC-MS/MS analysis; format: ADME, organism-based; conditions: in vivo, 168 h, time 1 weeks
[19] = Dose normalized AUC in Sprague-Dawley rat at 2 mg/kg, po or 1 mg/kg, iv after 1 week by LC-MS/MS analysis; format: ADME, organism-based; conditions: in vivo, 168 h, time 1 weeks
[20] = Dose normalized Cmax in ICR (CD-1) mouse at 2 mg/kg, po or 1 mg/kg, iv after 1 week by LC-MS/MS analysis; format: ADME, organism-based; conditions: in vivo, 168 h, time 1 weeks
[21] = Metabolic stability in mouse microsomes assessed as intrinsic clearance; format: ADME, Microsome; conditions: read-out: CLH
[22] = Metabolic stability in rat microsomes assessed as intrinsic clearance; format: ADME, Microsome; conditions: read-out: CLH
[23] = Metabolic stability in dog microsomes assessed as intrinsic clearance; format: ADME, Canis lupus familiaris, Microsome; conditions: read-out: CLH
[24] = Intrinsic clearance in mouse hepatocytes measured per 10^6 cells; format: ADME, cell-based, Hepatocyte; conditions: read-out: CLH
[25] = Plasma clearance in mouse; format: ADME, cell-free
[26] = Plasma clearance in rat; format: ADME, cell-free
[27] = Plasma clearance in dog; format: ADME, cell-free, Canis lupus familiaris
[28] = Plasma clearance in dog assessed as hepatic extraction; format: ADME, cell-free, Canis lupus familiaris; conditions: read-out: ERH
[29] = Plasma protein binding in rat at 1 uM measured after 6 hrs LC-MS/MS analysis; format: ADME, cell-free; conditions: read-out: PPB (converted)
[30] = Plasma clearance in human assessed as hepatic extraction; format: ADME, cell-free
[31] = biological target: T1, Muscarinic acetylcholine receptor M2 (Homo sapiens, UniProt P08172); experiment: Agonist activity at muscarinic M2 receptor (unknown origin); format: functional
T1 sequence (P08172 whole entry): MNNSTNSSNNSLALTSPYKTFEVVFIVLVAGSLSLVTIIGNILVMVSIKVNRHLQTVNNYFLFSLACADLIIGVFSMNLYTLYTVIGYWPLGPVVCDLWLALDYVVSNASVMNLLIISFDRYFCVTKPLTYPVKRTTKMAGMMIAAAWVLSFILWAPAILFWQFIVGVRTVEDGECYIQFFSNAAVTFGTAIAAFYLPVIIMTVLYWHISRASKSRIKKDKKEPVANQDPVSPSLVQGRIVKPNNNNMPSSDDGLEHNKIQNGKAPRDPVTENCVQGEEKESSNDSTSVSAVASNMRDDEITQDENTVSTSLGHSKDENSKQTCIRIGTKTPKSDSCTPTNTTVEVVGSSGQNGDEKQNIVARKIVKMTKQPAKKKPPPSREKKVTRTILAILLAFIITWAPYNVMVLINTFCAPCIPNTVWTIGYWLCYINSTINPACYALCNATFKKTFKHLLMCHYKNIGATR

[32] = biological target: Voltage-gated inwardly rectifying potassium channel KCNH2 (Homo sapiens, UniProt Q12809); experiment: Inhibition of hERG potassium channel in HEK293 cells by manual patch clamp assay; format: toxicity, cell-based
Cytochrome P450 3A4 = Cytochrome P450 3A4 (Homo sapiens, UniProt P08684); experiment: Inhibition of CYP3A4 in human liver microsomes using midazolam as substrate incubated for 10 mins by LC-MS/MS analysis; format: ADME, Microsome
Cytochrome P450 2D6 = Cytochrome P450 2D6 (Homo sapiens, UniProt P10635); experiment: Inhibition of CYP2D6 human liver microsomes using bufuralol as substrate incubated for 15 mins by LC-MS/MS analysis; format: ADME, Microsome
Cytochrome P450 3A5 = Cytochrome P450 3A5 (Homo sapiens, UniProt P20815); experiment: Inhibition of CYP3A5 in human liver microsomes by LC-MS/MS analysis; format: ADME, Microsome
[33] = Drugmetabolism in dog hepatocytes assessed as CYP3A4 mediated metabolite formation; format: ADME, cell-based, Canis lupus familiaris, Hepatocyte
[34] = Drug metabolism in bile duct cannulated Wistar Han rat assessed as parent compound recovery in bile at 3 mg/kg, iv after 8 hrs by LC-MS/MS analysis; format: ADME, organism-based; conditions: read-out: Drug metabolism
cells = conditions: Homo sapiens, G-401, 48 h
Description: Inhibition of PRC2 in human G-401 cells assessed as H3K27 methylation status incubated for 48 hrs by ELISA method

Chain of 3',5'-cyclic-AMP phosphodiesterase 4D (Q08499 whole entry): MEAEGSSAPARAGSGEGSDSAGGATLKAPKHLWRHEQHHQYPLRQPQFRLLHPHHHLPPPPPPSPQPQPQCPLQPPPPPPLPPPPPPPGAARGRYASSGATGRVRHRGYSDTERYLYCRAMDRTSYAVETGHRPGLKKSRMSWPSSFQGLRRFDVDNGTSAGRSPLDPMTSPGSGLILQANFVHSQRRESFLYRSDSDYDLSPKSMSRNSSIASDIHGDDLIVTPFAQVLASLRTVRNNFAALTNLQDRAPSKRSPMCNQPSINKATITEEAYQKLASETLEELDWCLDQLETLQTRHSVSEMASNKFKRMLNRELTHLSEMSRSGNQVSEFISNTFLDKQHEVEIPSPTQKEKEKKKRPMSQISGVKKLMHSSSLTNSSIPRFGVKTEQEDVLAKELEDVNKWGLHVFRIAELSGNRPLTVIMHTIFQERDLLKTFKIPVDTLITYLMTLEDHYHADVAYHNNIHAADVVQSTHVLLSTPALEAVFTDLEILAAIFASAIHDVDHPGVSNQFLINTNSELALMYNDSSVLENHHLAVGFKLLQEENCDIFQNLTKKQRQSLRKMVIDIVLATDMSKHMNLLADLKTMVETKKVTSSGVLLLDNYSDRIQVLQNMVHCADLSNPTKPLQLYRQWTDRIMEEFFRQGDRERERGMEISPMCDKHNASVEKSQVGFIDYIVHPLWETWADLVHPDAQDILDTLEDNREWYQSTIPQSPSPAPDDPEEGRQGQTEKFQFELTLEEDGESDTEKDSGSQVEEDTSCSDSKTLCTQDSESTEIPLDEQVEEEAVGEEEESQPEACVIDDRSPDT
Chain of Cytochrome P450 3A5 (P20815 whole entry): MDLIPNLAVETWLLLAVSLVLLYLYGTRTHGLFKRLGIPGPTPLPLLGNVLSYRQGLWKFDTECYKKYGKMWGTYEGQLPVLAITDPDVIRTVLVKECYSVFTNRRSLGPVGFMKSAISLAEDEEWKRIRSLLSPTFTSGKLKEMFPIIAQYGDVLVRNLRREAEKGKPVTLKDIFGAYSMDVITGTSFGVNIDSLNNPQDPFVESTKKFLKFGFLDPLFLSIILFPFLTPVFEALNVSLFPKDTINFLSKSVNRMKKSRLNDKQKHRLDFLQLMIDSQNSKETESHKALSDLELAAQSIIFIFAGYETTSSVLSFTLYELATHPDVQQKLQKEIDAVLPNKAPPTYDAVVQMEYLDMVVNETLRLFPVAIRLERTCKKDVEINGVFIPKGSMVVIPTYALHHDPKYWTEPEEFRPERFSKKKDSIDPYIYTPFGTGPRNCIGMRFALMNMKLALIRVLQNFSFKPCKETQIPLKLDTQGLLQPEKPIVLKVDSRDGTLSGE
Chain of Voltage-gated inwardly rectifying potassium channel KCNH2 (Q12809 whole entry): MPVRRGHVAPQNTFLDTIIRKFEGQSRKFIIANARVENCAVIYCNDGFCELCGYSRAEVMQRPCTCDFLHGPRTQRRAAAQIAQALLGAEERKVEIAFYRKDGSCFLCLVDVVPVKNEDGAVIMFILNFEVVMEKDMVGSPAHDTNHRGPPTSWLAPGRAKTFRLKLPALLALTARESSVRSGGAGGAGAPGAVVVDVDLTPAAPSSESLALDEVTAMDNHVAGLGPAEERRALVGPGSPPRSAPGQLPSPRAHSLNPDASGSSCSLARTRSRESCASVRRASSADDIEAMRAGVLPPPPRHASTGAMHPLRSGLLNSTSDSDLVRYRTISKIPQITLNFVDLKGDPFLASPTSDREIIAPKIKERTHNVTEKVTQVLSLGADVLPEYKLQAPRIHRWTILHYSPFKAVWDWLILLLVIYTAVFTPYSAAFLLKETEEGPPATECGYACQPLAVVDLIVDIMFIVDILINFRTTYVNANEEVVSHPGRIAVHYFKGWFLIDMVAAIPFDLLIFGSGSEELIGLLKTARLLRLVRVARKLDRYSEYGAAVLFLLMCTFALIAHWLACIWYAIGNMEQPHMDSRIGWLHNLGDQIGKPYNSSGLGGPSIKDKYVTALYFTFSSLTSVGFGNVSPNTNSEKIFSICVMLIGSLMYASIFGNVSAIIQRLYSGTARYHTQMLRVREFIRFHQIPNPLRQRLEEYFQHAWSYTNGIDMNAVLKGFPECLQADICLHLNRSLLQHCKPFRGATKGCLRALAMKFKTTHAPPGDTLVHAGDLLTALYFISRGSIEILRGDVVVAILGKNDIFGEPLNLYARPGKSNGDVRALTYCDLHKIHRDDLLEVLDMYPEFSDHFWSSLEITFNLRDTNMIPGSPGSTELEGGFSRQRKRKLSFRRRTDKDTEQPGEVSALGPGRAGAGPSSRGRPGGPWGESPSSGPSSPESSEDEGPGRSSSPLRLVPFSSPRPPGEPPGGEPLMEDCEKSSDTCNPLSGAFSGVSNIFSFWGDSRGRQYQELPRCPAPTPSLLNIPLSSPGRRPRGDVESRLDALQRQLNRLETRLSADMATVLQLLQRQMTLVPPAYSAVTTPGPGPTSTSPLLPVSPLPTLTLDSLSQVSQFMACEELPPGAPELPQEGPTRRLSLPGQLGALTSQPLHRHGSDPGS
Chain of Cytochrome P450 2D6 (P10635 whole entry): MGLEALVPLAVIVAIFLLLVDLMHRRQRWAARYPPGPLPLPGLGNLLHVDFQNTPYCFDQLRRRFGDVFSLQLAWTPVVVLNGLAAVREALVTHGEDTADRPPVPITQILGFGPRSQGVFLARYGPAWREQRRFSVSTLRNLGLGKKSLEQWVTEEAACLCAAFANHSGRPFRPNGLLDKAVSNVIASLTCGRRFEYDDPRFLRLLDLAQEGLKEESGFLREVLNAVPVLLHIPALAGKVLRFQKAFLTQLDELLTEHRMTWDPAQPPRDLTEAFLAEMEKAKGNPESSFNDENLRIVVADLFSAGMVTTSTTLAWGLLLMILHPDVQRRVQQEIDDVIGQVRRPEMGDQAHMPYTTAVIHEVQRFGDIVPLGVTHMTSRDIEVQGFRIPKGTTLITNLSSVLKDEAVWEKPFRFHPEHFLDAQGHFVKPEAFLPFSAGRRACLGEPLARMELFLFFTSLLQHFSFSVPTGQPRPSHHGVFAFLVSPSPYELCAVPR
Chain of Cytochrome P450 3A4 (P08684 whole entry): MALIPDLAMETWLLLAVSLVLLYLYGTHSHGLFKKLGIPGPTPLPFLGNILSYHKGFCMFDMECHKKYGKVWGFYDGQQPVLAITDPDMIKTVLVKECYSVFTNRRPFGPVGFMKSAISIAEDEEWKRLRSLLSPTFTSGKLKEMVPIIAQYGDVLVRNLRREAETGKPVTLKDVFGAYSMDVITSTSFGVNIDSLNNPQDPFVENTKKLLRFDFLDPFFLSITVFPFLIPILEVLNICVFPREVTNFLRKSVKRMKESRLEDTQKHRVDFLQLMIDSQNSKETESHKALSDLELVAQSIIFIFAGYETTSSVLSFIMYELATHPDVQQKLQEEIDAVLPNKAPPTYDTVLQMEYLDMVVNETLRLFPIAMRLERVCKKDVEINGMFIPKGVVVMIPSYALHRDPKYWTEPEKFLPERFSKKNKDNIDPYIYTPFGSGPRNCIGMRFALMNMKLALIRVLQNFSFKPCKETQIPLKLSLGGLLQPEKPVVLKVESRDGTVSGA

Q: Which results are given for `Cc1ncccc1-c1cnc(NCc2c(F)ccc3c2CCO3)n2cnnc12`?
A: IC50 [1]: 9 µM; permeability [2]: 2.8 10^-6 cm/s; IC50 [3]: 6.4 µM; solubility [4]: > 13 mM; solubility [5]: 8.74 mM (≈ 3290 µg/mL); Activity [6]: Non-Toxic; Activity [7]: 100%; minimal effective dose [8]: 3 mg/kg; Activity [9]: 93%; Activity [10]: 20%; blood plasma ratio [11]: 0.98; Activity [12]: Toxic; bioavailability [13]: 77%; bioavailability [14]: 73%; Vdss [15]: 2 L/kg; half-life [16]: 1.5 h; half-life [17]: 1.2 h; AUC/dose [18]: 884 nM·h; AUC/dose [19]: 2939 nM·h; Cmax/dose [20]: 356 nM; microsomal CLint [21]: 22 µL/min/mg; microsomal CLint [22]: 22 µL/min/mg; microsomal CLint [23]: 91 µL/min/mg; hepatocyte CLint [24]: 3.9 µL/min/1e6 cells; clearance [25]: 38 mL/min/kg; clearance [26]: 10 mL/min/kg; clearance [27]: 13 mL/min/kg; hepatic extraction ratio [28]: 0.35; fraction unbound at 6 h, 1 µM [29]: 0.13; CLH [30]: 1.6 mL/min/kg; IC50 [31]: 8.9 µM; IC50 [32]: > 30 µM; IC50 (Cytochrome P450 3A4): > 18 µM; IC50 (Cytochrome P450 2D6): > 18 µM; IC50 (Cytochrome P450 3A5): > 18 µM; Drug metabolism [33]: Metabolite_Detected; dose excreted at 8 h [34]: 0.3%; IC50 (cells): 3 µM
